Source: patent US20080177115A1, “Isotopically labeled alpha-keto acids and esters” (Spectra Gases, Inc., priority 2006, published 2008)

Tests used:
Assay type in all cases: physicochemical
[1] = Concentration studies: stability of pyruvic acid solutions in water at higher concentrations
Procedure: Each of these commercial solutions were subjected to light for 6-weeks at temperatures ranging from about 22° C. to about 26° C. At each of the concentrations listed below, it was discovered that the pyruvic acid solutions were stable.

[2] = Titration of aqueous sample with sodium hydroxide, composition by HPLC (dimer formation); conditions: pH of about 6.2 after titration with sodium hydroxide
From the text: The molarity of sample 4 was confirmed to be 0.025M by titrating the aqueous sample with sodium hydroxide. […] It was also discovered that at pHs greater than 5.8, such as at a pH of about 6.2, some of the pyruvic acid was present in the form of a dimerized sodium salt. […] As such, it was discovered that to minimize dimmer formation, it may be necessary to control the pH of [1-^13C]pyruvate solutions, and in particular, any aqueous solution should be maintained at a pH of about 6.5 or less, more preferably 6.0 or less, and even more preferably 5.8 or less.

[3] = Shelf storage stability of [1-^13C]pyruvic acid in water, compared by ^1H and ^13C NMR spectra; conditions: 0.025M in water; for Shelf stability (NMR spectra unchanged): all conditions of Table 1
Procedure: Samples of isotopically labeled [1-^13C]pyruvic acid, having Formula VI and synthesized as discussed immediately below, were subjected to various conditions as depicted in Table 1, in order to establish the compound's shelf storage stability.
The resulting [1-^13C]pyruvic acid was tested as follows in Table 1:
^1H and ^13C NMR spectra of the distilled [1-^13C]pyruvic acid in water (0.025M) were acquired at the onset of the study and prior to exposing the samples to the various conditions specified in Table 1. ^1H and ^13C NMR spectra were again acquired for each of the samples after being exposed to the aforementioned conditions on a weekly basis for 12-weeks. The spectra acquired after exposure were compared visually and appeared to remain unchanged as compared with the spectra acquired prior to exposure, i.e. the spectra were as expected for [1-^13C]pyruvic acid in water. As such, it was concluded that each of the samples were shelf stable. Similarly, ^1H and ^13C NMR spectra acquired after 17-weeks of exposure remained unchanged as compared with the spectra acquired prior to exposure.

[4] = Sample 3: Room temperature (about 22° C. to about 26° C.), Dark
[5] = Sample 4: Room temperature (about 22° C. to about 26° C.), Light

| Compound | Stability of solutions in water at higher concentrations (believed) ([1]; at least the concentrations of Table 2 in water, inferred from commercial pyruvic acid) | Content of dimerized [1-^13C]pyruvate salt by HPLC [2] | Content of sodium [1-^13C]pyruvate by HPLC [2] [%] | Share of the pyruvic acid accounted for by dimerized salt [2] | Shelf stability, 12 weeks ([3]; Sample 1: −10° C., Dark) | Shelf stability, 17 weeks ([3]; Sample 1: −10° C., Dark) | Shelf stability, 12 weeks ([3]; Sample 2: 4° C., Dark) | Shelf stability, 17 weeks ([3]; Sample 2: 4° C., Dark) | Shelf stability, 12 weeks [3, 4] | Shelf stability, 17 weeks [3, 4] | Shelf stability, 12 weeks [3, 5] | Shelf stability, 17 weeks [3, 5] | Shelf stability (NMR spectra unchanged) ([3]; 17-weeks) | Shelf stability (NMR spectra unchanged) ([3]; weekly for 12-weeks) | Stability of solutions in water ([1]; each of the concentrations of Table 2, light, 6-weeks, about 22° C. to about 26° C.) |
| --- | --- | --- | --- | --- | --- | --- | --- | --- | --- | --- | --- | --- | --- | --- | --- |
| CC(=O)[13C](=O)O [[1-^13C]pyruvic acid] | stable | 2-4% | 89 | 4-6% | Stable | Stable | Stable | Stable | Stable | Stable | Stable | Stable | shelf stable | shelf stable |  |
| CC(=O)C(=O)O [Pyruvic acid, 2-oxopropanoic acid, reference compound] |  |  |  |  |  |  |  |  |  |  |  |  |  |  | stable |
